Results: patent US4221909A, “P-Acetamidobenzoic acid salts of 9-(hydroxyalkyl) purines” (Sloan-Kettering Institute for Cancer Research, priority 1978, dated 1980)

Columns and labels:
Format in all cases: cell-based
[1] = system: Influenza A USSR/90(H1 N1); experiment: Anti-Influenza Activity (Hemadsorption Assay), Influenza A USSR/90; details: for inhibition: Influenza A virus, read-out: % Inhibition of Hemadsorption Foci
Procedure: (§1) Upon infection of a monolayer of tissue culture cells by influenza virus, the cell surface is altered so that guinea pig erythrocytes can be adsorbed to the cell surface. The number of foci of adsorbed cells (hemadsorption foci forming units HAFFU) is a quantitative measure of infectivity. The method is as follows.
The monolayers were subcultured in the following manner: The medium was poured off, and the monolayer washed two times with approximately 50 ml per wash of calcium and magnesium free phosphate buffered saline (PBS), (GIBCO #419) at a pH of 7.2. One ml of trypsin-EDTA solution (GIBCO #530L) containing 0.5 g trypsin (1:250) and 2.0 g EDTA/liter of Modified Puck's Saline A was added at 37° C. to each flask and dispersed over the monolayer with gentle shaking. The flasks were then placed in an incubator at 37° C. for approximately 3-5 minutes depending on the time required to dislodge the cells. Occasional shaking was required. Ten ml of planting medium was added to each flask and the cells dispersed by aspirating and expelling the suspension from the pipette. The contents of a series of flasks were pooled and the cells in the suspension were diluted with planting medium to 7-8.5×10^4 cells/ml. The planting medium consisted of the following composition: Minimum Essential Medium Eagles (MEM) with Earle's salts and HEPES buffer (GIBCO #236) supplemented by adding the following substances as specified to 87 ml of MEM:
The following day the medium was removed and replaced with fresh planting medium. The monolayers were used for experimentation when they reached a condition in which they were almost confluent (approximately 3-4 days).
(§2) When the Linbro tray HeLa cell cultures were ready for experimentation (see cells), the medium was decanted and 1 ml of maintenance medium (MEM with FCS reduced to 3%) containing the compound being tested at a given concentration was added to 4 replicate cultures within a tray.
(§3) A series of different drug concentrations ranging from 2.3 to 150 μg/ml were used. Maintenance medium alone was used for control cultures. After the administration of drug and control medium, 0.1 ml of the diluted viral suspension was added to experimental groups and infected control cultures. Saline alone was added to non-infected control cultures. The Linbro trays were then incubated at 37° C. for 18 hours, after which media in all groups was aspirated. Each culture was washed once with PBS. The saline was aspirated and 0.5 ml of a 0.4% v/v guinea pig red blood cell suspension in PBS was added to each culture well. The cultures remained at room temperature for 30 minutes after which the medium was decanted and culture washed […] with PBS to remove all but the specifically bound red cells. After the third wash, maintenance medium was added to all cultures.
(§4) A Howard Micrometer eyepiece (C8385) was inserted within the ocular of a Nikon inverted phase contrast microscope. Each culture was scanned with a 4× low paper objective and direct counts of hemadsorbed red cells were counted using the eyepiece grid as a field marker. Partial or complete fields were counted per experimental group depending on the resulting number and density of hemadsorbed cells in the infected control cultures. Magnification of 60× or 150× were chosen to obtain the best conditions for enumerating the hemadsorbed cells. Field factors were calculated for counting hemadsorption at 60× and 150×. At 60× magnification, total field count was calculated using a multiplication factor of 55.5. At 150× magnification the multiplication factor was 273. The multiplication factors of 55.5 and 273 represent the total number of fields at 60× and 150× magnifications, respectively. The number of fields counted ranged from 3 to 5 per well with 3 to 4 wells per treatment group employed (see raw data tables in results section for number of fields examined). Means and standard errors were calculated and the data was evaluated using student's t-test analysis.

[2] = system: Influenza A Swine 1976 (Hlsw -N1); experiment: Inhibition of influenza virus replication, Swine 1976
Procedure: as §1, §2, §3, §4

[3] = system: guinea pig peritoneal macrophages; experiment: Lymphokine Induced (MMF) Guinea Pig Macrophage Proliferation
Text: The following three assay procedures are used to evaluate the ability of the test substances to modulate the activity of several classes of cells in the immune system. In these systems it is possible to identify both immunopotentiating activity (evidence by an enhancement of the parameter examined) as well as immunosuppressant activity (evidenced by an inhibition of the parameter examined).
3. The macrophage represents a subpopulation of white blood cells which is an important component of the immune system in control of both cellular and humoral immunity. The assay system described below evaluates the substances studied as potentiators of macrophage function.
Phytohemagglutinin(PHA) (HA-17) was purchased from Burroughs Wellcome. A preparation containing Macrophage Mitogen Factor (MMF) and Macrophage Activating Factor (MAF) was prepared from antigen-stimulated immune lymph node lymphocytes (guinea pig) as previously described by Hadden et al, Nature 257, 483-485 (1975). […] The active fraction was employed in both the proliferation and activation assays.
Ficoll-hypaque purified human peripheral blood lymphocytes were prepared and PHA-induced lymphocyte proliferation was assayed by the incorporation of tritiated thymidine as described in Hadden et al, Cell. Immunol. 20, 98-103 (1975). Each compound was analyzed in the presence of suboptimal, optimal and supraoptimal concentrations of PHA (0.001, 0.01, 0.1 units/ml respectively). Paraffin oil-induced guinea pig peritoneal macrophages were prepared and incubated as monolayer culture (>98% pure macrophages). Lymphokine (MMF)-induced proliferation was assayed by the incorporation of triturated thymidine at 3 and 5 days of culture as described, Hadden et al, Nature 257, 483-485 (1975). Lymphokine (MAF)-induced macrophage activation to kill Listeria monocytogenes following 5 days of culture in the presence or absence of MAF was performed during a 6 hour period as described in Hadden and England, Immunopharmacology, pages 87-100 (Plenum Press, 1977). Phagocytosis was quantitated during a 20-minute exposure to Listeria monocytogenes by counting the number of macrophages containing bacteria and the number of bacteria per phagocytic cell on gram stained monolayers in Labtek chambers. Intracellular killing of bacteria was evaluated by counting the number of cells containing bacteria and the number of bacteria/cell 6 hours after the initial 20 minute exposure. Parallel experiments in which macrophages were lysed and intracellular bacteria were cultured confirm the validity of bacterial activity determined by this manner in this sytem. The drugs were employed in each of the three systems over serial log concentration range in triplicate in the presence and absence of mitogen or lymphokine. Each type of experiment was performed at least three times. Previous experiments indicate a parallelism of response to pharmacologic modulation in the proliferation and activation assays.

`CCCCCC[C@H]([C@H](C)O)n1cnc2c(=O)[nH]cnc21` (relative stereo) [NPT 15392, Erythro-9-(2-Hydroxy-3-Nonyl)Hypoxanthine] was tested, and the “% Inhibition of Hemadsorption Foci” value ([1]; Conc. <10 μg/ml, listed as 15392) was 86%, the inhibition ([1]; Conc. 10-100 μg/ml) was 100% and the “% Inhibition” value ([2]; 0.1-1.0 μg/ml, listed as 15392) was 30-50%. The “% Inhibition” value ([2]; 10-100 μg/ml) was over 70% and the “% Inhibition” value ([2]; >100 μg/ml) was over 70%.

For `CCCCCC[C@H]([C@H](C)O)n1cnc2c(=O)[nH]cnc21` (relative stereo) [NPT 15410], the “% Inhibition of Hemadsorption Foci” value ([1]; Conc. 10-100 μg/ml) was 96%, the “% Inhibition of Hemadsorption Foci” value ([1]; Conc. <10 μg/ml, listed as 15410) was 58% and the “% Inhibition of Hemadsorption Foci” value ([1]; Conc. >100 μg/ml) was 96%. The “% Inhibition” value ([2]; 0.1-1.0 μg/ml, listed as 15410) was 50-70%, the “% Inhibition” value ([2]; 1.0-10 μg/ml) was 30-50% and the “Maximum Percent Change, Lymphokine Induced (MMF) Guinea Pig Mac. Prolif.” value (“Maximum Percent Change” below) ([3]; 1.0-10) was 23%. The “Maximum Percent Change” value ([3]; .01-1.0) was 12%.

In the case of `CCCCCCC(CO)n1cnc2c(=O)[nH]cnc21` (centres unmarked) [NPT 15417], the inhibition ([1]; Conc. 10-100 μg/ml) is reported as 58%, the “% Inhibition” value ([2]; 10-100 μg/ml) is reported as over 70% and the “Maximum Percent Change” value ([3]; 1.0-10, listed as 15417) is reported as 13%. The “Maximum Percent Change” value ([3]; 10-100) was -50%.

With `CCCCCCC(CO)n1cnc2c(=O)[nH]cnc21` (centres unmarked) [NPT 15418] the “% Inhibition of Hemadsorption Foci” value ([1]; Conc. 10-100 μg/ml) was 46%, the “% Inhibition of Hemadsorption Foci” value ([1]; Conc. <10 μg/ml) was 16% and the “% Inhibition of Hemadsorption Foci” value ([1]; Conc. >100 μg/ml) was 52%. The “% Inhibition” value ([2]; >100 μg/ml) was over 70%, the “Maximum Percent Change” value ([3]; 1.0-10, listed as 15418) was 80% and the “Maximum Percent Change” value ([3]; 10-100) was -50%. For the same compound, the “Maximum Percent Change” value ([3]; .01-1.0) was 12%.
